According to patent US7091220B2, “Substituted indole Mannich bases” (Gruenenthal GmbH, priority 1999, dated 2006):
Where two headings read alike, the source gives them in different places.

Columns and labels:
[1] = system: α2-subtype of the human α-adrenergic receptor; test: SPA test, affinity for the α2-subtype of the human α-adrenergic receptor; format: binding
Procedure: Wide-ranging testing of the indole Mannich bases according to the invention for their activity was carried out by the conventional high throughput screening methods, such as are described in John P. Devlin, High Throughput Screening, 1997, Marcel Dekker Inc. They are introduced here as a reference and are therefore part of the disclosure.
The action of the indole Mannich bases according to the invention is determined in particular by the affinity for the N-methyl-D-aspartate (NMDA) receptor family, for (α-adrenergic receptors and opioid receptors.
The compounds of the general formula 1 according to the invention investigated are suitable as ligands for the α2-subtype of the human α-adrenergic receptor, which is of importance for pain sensation.
The affinity of the compounds according to the invention for this α2-subtype of the α-adrenergic receptor has been determined with the aid of the SPA test such as is described in John P. Devlin, High Throughput Screening, Marcel Dekker Inc. 1997, pages 307 to 316. This literature is introduced herewith as a reference and is therefore part of the disclosure. The affinities of the compounds according to the invention were in each case determined at a concentration of 10 μM.

[2] = system: phenylquinone-induced writhing in mice; test: Analgesia test: phenylquinone-induced writhing in mice; format: in vivo; details: male NMRI mice; standard dose 10 mg/kg intravenous, 10 minutes before phenylquinone intraperitoneally; counted 5–20 minutes
Procedure: The in-depth investigation of the compounds according to the invention for their analgesic activity was carried out in the phenylquinone-induced writhing in mice (modified by I. C. Hendershot, J. Forsaith, J. Pharmacol. Exp. Ther. 125, 237–240 (1959)). Male NMRI mice weighing 25–30 g were used for this. Groups of 10 animals per substance dose received 0.3 ml/mouse of a 0.02% aqueous solution of phenylquinone (phenylbenzoquinone, Sigma, Deisenhofen; preparation of the solution with the addition of 5% ethanol and storage in a water bath at 45° C.) administered intraperitoneally 10 minutes after intravenous administration of the test substances. The animals were placed individually in observation cages. The number of pain-induced stretching movements (so-called writhing reactions=straightening of the body with stretching of the hind extremities) were counted by means of a push-button counter for 5–20 minutes after the administration of phenylquinone. Animals which received only physiological saline solution were also run as a control.
The substances were tested in the standard dose of 10 mg/kg. The inhibition of the writhing reactions by a substance was calculated according to the following equation: […]
The in-depth investigation of the compounds according to the invention for their analgesic activity was carried out in the phenylquinone-induced writhing in mice as described above.

5-HT transporter = target: T1, 5-HT transporter (Rattus norvegicus, UniProt P31652); test: Inhibition of serotonin re-uptake (5-HT uptake inhibition) in rat brain synaptosomes; format: biochemical; details: rat brain synaptosomes (P2 fraction, pons and medulla oblongata); means from 2 parallel experiments; concentration not given
T1 construct: these vesicular particles were isolated from the pons and medulla oblongata region of the male rat brain; from tissue; host or cells: rat brain synaptosomes (P2 fraction) from pons and medulla oblongata of male rats
T1 sequence (P31652 whole entry): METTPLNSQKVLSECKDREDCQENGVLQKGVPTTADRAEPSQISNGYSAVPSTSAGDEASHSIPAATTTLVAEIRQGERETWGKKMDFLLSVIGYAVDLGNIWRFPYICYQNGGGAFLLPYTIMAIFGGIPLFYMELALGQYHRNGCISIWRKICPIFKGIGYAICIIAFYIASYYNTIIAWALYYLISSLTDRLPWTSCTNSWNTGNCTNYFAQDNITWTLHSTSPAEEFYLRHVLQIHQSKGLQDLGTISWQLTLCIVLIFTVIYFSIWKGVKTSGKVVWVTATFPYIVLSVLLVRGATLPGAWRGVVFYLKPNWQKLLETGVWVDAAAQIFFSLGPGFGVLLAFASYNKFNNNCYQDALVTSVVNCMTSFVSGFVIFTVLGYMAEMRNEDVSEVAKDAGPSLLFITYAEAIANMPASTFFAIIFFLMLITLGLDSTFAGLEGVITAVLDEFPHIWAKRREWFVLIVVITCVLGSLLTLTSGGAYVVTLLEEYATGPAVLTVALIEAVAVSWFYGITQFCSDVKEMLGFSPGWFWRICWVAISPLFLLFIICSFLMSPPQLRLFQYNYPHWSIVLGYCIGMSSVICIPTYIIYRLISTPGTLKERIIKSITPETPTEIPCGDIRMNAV
Procedure: The investigations of the inhibition of serotonin re-uptake (5-HT uptake inhibition) were carried out by the methods such as are described in M. Ch. Frink, H. -H. -Hennies, W. Englberger, M. Haurand and B. Wilffert, Arzneim.-Forsch./Drug. Res. 46 (III), 11, 1996, pages 1029–1036. They are introduced herewith as reference and thus form part of the disclosure.
To carry out these investigations, synaptosomes were freshly isolated from rat brain areas. In each case the so-called “P2” fraction was used, which was prepared according to the instructions in E. G. Gray and V. P. Whittaker, J. Anat. 76, pages 79–88, 1962. This literature is introduced herewith as reference and thus forms part of the disclosure. For determination of the 5-HT uptake, these vesicular particles were isolated from the pons and medulla oblongata region of the male rat brain.
The following characteristic data were determined for the 5-HT transporter: • 5-HT uptake: Km=0.084±0.011 μM • Vmax: 38.13±4.52 pmol/min/mg protein.
The results of the investigations are in each case stated as means from 2 parallel experiments.

Compound	% Inhibition of α2 (humans), 10 μM [1]	also measured
5-Benzyloxy-3-(phenyl-pyrrolidin-yl-methyl)-1H-indole [Example 50]	51%	–
Cc1[nH]c2ccc([N+](=O)[O-])cc2c1C(c1ccccc1)N(C)C (stereo not drawn) [Example 15, Dimethyl-[(2-methyl-5-nitro-1H-indol-3-yl)-phenylmethyl]-amine]	40%	–
CN(C)C(c1ccccc1)c1cn(C)c2ccccc12 (stereo not drawn) [Example 22, Dimethyl-[(1-methyl-1H-indol-3-yl)-phenylmethyl]-amine]	–	Inhibition of the writhing reaction in % [2]: 39%
Cn1cc(C(c2ccccc2)N2CCOCC2)c2ccccc21 (stereo not drawn) [Example 23, 1-Methyl-3-(morpholin-4-yl-phenylmethyl)-1H-indole]	–	Inhibition of the writhing reaction in % [2]: 75%
CN(C)C(c1ccccc1)c1c[nH]c2ccccc12 (stereo not drawn) [Example 46, [(1H-Indol-3-yl)-phenylmethyl]-dimethylamine]	–	Inhibition of the writhing reaction in % [2]: 41%
c1ccc(C(c2c[nH]c3ccccc23)N2CCCC2)cc1 (stereo not drawn) [Example 47, 3-(Phenylpyrrolidin-1-yl-methyl)-1H-indole]	–	Inhibition of the writhing reaction in % [2]: 57%
Cn1cc(C(c2ccccc2)N2CCCCC2)c2ccccc21 (stereo not drawn) [Example 48, 1-Methyl-3-(phenylpiperidin-1-yl-methyl)-1H-indole]	–	Inhibition of the writhing reaction in % [2]: 6%
c1ccc(C(c2c[nH]c3ccccc23)N2CCCCC2)cc1 (stereo not drawn) [Example 49, 3-(Phenylpiperidin-1-yl-methyl)-1H-indole]	–	Inhibition of the writhing reaction in % [2]: 82%
CN(C)C(c1c(F)cccc1Cl)c1c(-c2ccccc2)[nH]c2ccccc12 (stereo not drawn) [Example 53, [(2-Chloro-6-fluoro-phenyl)-(2-phenyl-1H-indol-3-yl)-methyl]-dimethylamine]	–	% Inhibition of α2 (humans), 10 μM ([1]; 10 µM): 38%
CN(C)C(c1c(F)cccc1Cl)c1c[nH]c2cccc([N+](=O)[O-])c12 (stereo not drawn) [Example 55, [(2-Chloro-6-fluoro-phenyl)-(4-nitro-1H-indol-3-yl)-methyl]-dimethyl-amine]	49%	–
CN(C)C(c1c(F)cccc1Cl)c1cn(C)c2ccccc12 (stereo not drawn) [Example 56, [(2-Chloro-6-fluoro-phenyl)-(1-methyl-1H-indol-3-yl)-methyl]-dimethyl-amine]	–	% Inhibition of α2 (humans), 10 μM ([1]; 10 µM): 39%
CN(C)C(c1ccccc1Br)c1c[nH]c2cccc([N+](=O)[O-])c12 (stereo not drawn) [Example 57, [(2-Bromo-phenyl)-(4-nitro-1H-indol-3-yl)-methyl]-dimethyl-amine]	64%	–
CCc1cccc2c(C(c3cccc(Br)c3)N(C)C)c[nH]c12 (stereo not drawn) [Example 59, [(3-Bromo-phenyl)-(7-ethyl-1H-indol-3-yl)-methyl]-dimethyl-amine]	37%	–
CCn1c(-c2ccccc2)c(C(c2ccc(C(C)(C)C)cc2)N(C)C)c2ccccc21 (stereo not drawn) [Example 62, [(4-tert-Butyl-phenyl)-(1-ethyl-2-phenyl-1H-indol-3-yl)-methyl]-dimethyl-amine]	51%	–
CN(C)C(c1ccc(F)cc1Cl)c1c[nH]c2cccc([N+](=O)[O-])c12 (stereo not drawn) [Example 64, [(2-Chloro-4-fluoro-phenyl)-(4-nitro-1H-indol-3-yl)-methyl]-dimethyl-amine]	48%	–
Cc1cccc2[nH]cc(C(c3ccc(F)cc3Cl)N(C)C)c12 (stereo not drawn) [Example 65, [(2-Chloro-4-fluoro-phenyl)-(4-methyl-1H-indol-3-yl)-methyl]-dimethyl-amine]	42%	–
CN(C)C(c1c(F)cccc1Cl)c1c(-c2ccccc2)[nH]c2ccccc12 (stereo not drawn) [Example 66, [(2-Chloro-6-fluoro-phenyl)-(2-phenyl-1H-indol-3-yl)-methyl]-dimethyl-amine]	–	% Inhibition of α2 (humans), 10 μM ([1]; 10 µM): 44%
CN(C)C(c1c(F)cccc1Cl)c1c(-c2ccc(Cl)cc2)[nH]c2ccccc12 (stereo not drawn) [Example 67, {(2-Chloro-6-fluoro-phenyl)-[2-(4-chloro-phenyl)-1H-indol-3-yl]-methyl}-dimethyl-amine]	36%	–
CN(C)C(c1c(F)cccc1Cl)c1cn(C)c2ccccc12 (stereo not drawn) [Example 68, [(2-Chloro-6-fluoro-phenyl)-(1-methyl-1H-indol-3-yl)-methyl]-dimethyl-amine]	–	% Inhibition of α2 (humans), 10 μM ([1]; 10 µM): 88%
CN(C)C(c1ccc(Cl)cc1Cl)c1cn(C)c2ccccc12 (stereo not drawn) [Example 71, [(2,4-Dichloro-phenyl)-(1-methyl-1H-indol-3-yl)-methyl]-dimethyl-amine]	50%	–
Cc1[nH]c2ccccc2c1C(c1ccc(C(F)(F)F)cc1)N(C)C (stereo not drawn) [Example 103, Dimethyl-[(2-methyl-1H-indol-3-yl)-(4-trifluoromethyl-phenyl)-methyl]-amine]	–	Inhibition of 5HT uptake in % (5-HT transporter): 74%

The next lines start with results.

% Inhibition of α2 (humans), 10 μM [1]	Compound	also measured
43%	CN(C)C(c1cc(Br)ccc1F)c1c[nH]c2cccc([N+](=O)[O-])c12 (stereo not drawn) [Example 51, [(5-Bromo-2-fluoro-phenyl)-(4-nitro-1H-indol-3-yl)-methyl]-dimethyl-amine]	–
37%	CN(C)C(c1cc(Br)ccc1F)c1cn(C)c2ccccc12 (stereo not drawn) [Example 52, [(5-Bromo-2-fluoro-phenyl)-(1-methyl-1H-indol-3-yl)-methyl]-dimethyl-amine]	–
55%	CCn1c(-c2ccccc2)c(C(c2c(F)cccc2Cl)N(C)C)c2ccccc21 (stereo not drawn) [Example 54, [(2-Chloro-6-fluoro-phenyl)-(1-ethyl-2-phenyl-1H-indol-3-yl)-methyl]-dimethylamine]	–
82%	CN(C)C(c1ccccc1Br)c1cn(C)c2ccccc12 (stereo not drawn) [Example 58, [(2-Bromo-phenyl)-(1-methyl-1H-indol-3-yl)-methyl]-dimethyl-amine]	–
66%	CN(C)C(c1cccc(Br)c1)c1cn(C)c2ccccc12 (stereo not drawn) [Example 60, [(3-Bromo-phenyl)-(1-methyl-1H-indol-3-yl)-methyl]-dimethyl-amine]	–
63%	Cc1[nH]c2ccccc2c1C(c1ccc(C(C)(C)C)cc1)N(C)C (stereo not drawn) [Example 61, [(4-tert-Butyl-phenyl)-(2-methyl-1H-indol-3-yl)-methyl]-dimethyl-amine]	–
60%	CN(C)C(c1ccc(C(C)(C)C)cc1)c1cn(C)c2ccccc12 (stereo not drawn) [Example 63, [(4-tert-Butyl-phenyl)-(1-methyl-1H-indol-3-yl)-methyl]-dimethyl-amine]	–
75%	CN(C)C(c1cccc(Cl)c1)c1cn(C)c2ccccc12 (stereo not drawn) [Example 69, [(3-Chloro-phenyl)-(1-methyl-1H-indol-3-yl)-methyl]-dimethyl-amine]	–
63%	CN(C)C(c1cccc(Cl)c1Cl)c1cn(C)c2ccccc12 (stereo not drawn) [Example 70, [(2,3-Dichloro-phenyl)-(1-methyl-1H-indol-3-yl)-methyl]-dimethyl-amine]	–
